Test results from US20070111988A1, “Selective estrogen receptor modulators” (ELI LILLY AND COMPANY, priority 2004, published 2007).

Key:
[1] = tested on: Ishikawa human endometrial tumor cells; assay: Ishikawa Cell Proliferation Assay, agonist mode (alkaline phosphatase readout); type: cell-based; details: for stimulation compared with tamoxifen: compound alone; for Emax: Homo sapiens, Ishikawa, versus the response to tamoxifen, read-out: relative % efficacy
Protocol: (§1) Ishikawa Cell Proliferation Assay: This assay measures cell proliferation (using an alkaline phosphatase readout) in both an agonist mode in the presence of a compound of the present invention alone, and in an antagonist mode in which the ability of a compound of the present invention to block estradiol stimulation of growth is measured.
(§2) Ishikawa human endometrial tumor cells are maintained in MEM (minimum essential medium, with Earle's salts and L-Glutamine, Gibco BRL, Gaithersburg, Md.), supplemented with 10% fetal bovine serum (FBS) (V/V), (Gibco BRL). One day prior to assay, growth media is changed to assay medium, DMEM/F-12 (3:1) (Dulbecco's Modified Eagle Medium:Nutrient Mixture F-12, 3:1 Mixture, phenol red-free, Gibco BRL) supplemented with 5% dextran coated charcoal stripped fetal bovine serum (DCC-FBS) (Hyclone, Logen, Utah), L-Glutamine (2 mM), MEM sodium pyruvate (1 mM), HEPES (N-[2-hydroxyethyl]piperazine-N′-[2-ethanesulfonic acid] 2 mM) all from Gibco BRL). After an overnight incubation, Ishikawa cells are rinsed with Dulbecco's Phosphate Buffered Saline (1×) (D-PBS) without Ca^+2 and Mg^+2 (Gibco BRL), and trypsinized by a 3 minute incubation with 0.25% Trypsin/EDTA, phenol red-free (Gibco BRL). Cells are resuspended in assay medium and adjusted to 250,000 cells/mL. Approximately 25,000 cells in a 100 ul media are added to flat-bottom 96 wells microculture plates (Costar 3596) and incubated at 37° C. in a 5% CO2 humidified incubator for 24 hours. The next day, serial dilutions of compounds are prepared in assay medium (at 6 times the final concentration in the assay). The assay is run in dual mode, agonist and antagonist modes.
For the agonist mode, plates receive 25 μl/well of assay medium followed by 25 μl/well of a diluted compound of the present invention (at 6× the final concentrations). For the antagonist mode, plates receive 25 μl/well of 6 nM E2 (β-Estradiol, Sigma, St. Louis, Mo.) followed by 25 μl/well of a diluted compound of the present invention (at 6× the final concentrations). After an additional 48-hour incubation at 37° C. in a 5% CO2 humidified incubator, media is aspirated from wells and 100 μl fresh assay medium is added to each microculture. Serial dilutions of compounds are prepared and added to the cells as described above. After an additional 72 hour incubation at 37° C. in a 5% CO2 humidified incubator, the assay is quenched by removing media and rinsing plates twice in Dulbecco's Phosphate Buffered Saline (1×) (D-PBS) (Gibco BRL). The plates are dried for 5 minutes and frozen at −70° C. for at least 1 hour. The plates are then removed from the freezer and allowed to thaw at room temperature. To each well, 100 μl of 1-Step™ PNPP (Pierce Chemical Company, Rockford, Ill.) is added. After a 20-minute incubation, plates are read on a spectophotometer at 405 nm.
(§3) The data is fitted to a linear interpolation to derive EC50 (for agonist mode) or IC50 (for antagonist mode) values. For the antagonist mode, a % efficacy for each compound is calculated versus E2 (1 nM) alone. For the agonist mode, a % efficacy for each compound is calculated versus the response to tamoxifen.

[2] = tested on: estrogenic stimulation of the uterus in immature female rats; assay: 3-Day Rat Uterus Antagonist Assay; type: in vivo; details: 3 days, with E2 0.1 mg/kg; for inhibition of the estrogen-induced response (uterine weight/body weight ratio): 1.0 mg/kg oral; for % antagonism / ED50: oral
Excerpt: 3-Day Rat Uterus Antagonist Assay: This model for uterine antagonism utilizes immature (3 week old) female rats that are highly sensitive to estrogenic stimulation of the uterus given that their circulating estrogen levels are prepubertal. The uteri from immature rats are fully responsive to exogenous estrogen, yet are quiescent in the absence of exogenous estrogen. Administration of exogenous estrogen to immature rats produces a reliable elevation of uterine weight, which can be used to study uterine antagonist effects. The rats are treated with both estradiol and 4 different concentrations of a compound of the present invention for 3 days and then uterine wet weights are measured.
Nineteen to twenty-one day old (or 45-50 g) female rats are orally treated with E2 (0.1 mg/kg, a maximal stimulatory estrogenic stimulus for reliably increasing uterine weight) and 10, 1.0, 0.1 and 0.01 mg/kg test compound for 3 days, 6 rats per group. Test compounds are dissolved in 20% β-hydroxycyclodextrin and administered by oral gavage in a volume of 0.2 mL daily (15 min. prior to the ethynyl estradiol gavage). A vehicle control, E2 alone and E2+raloxifene are also done as controls. The animals are fasted overnight following the final dose. On the following morning, the animals are weighed, then euthanized (by carbon dioxide asphyxiation) and the uteri rapidly collected (via a mid-line ventral incision) and weighed.
Uterine weight/body weight ratios (UWR) are calculated for each animal. The percent inhibition of the estrogen-induced response is then calculated by the following formula: percent inhibition=100×(UWRestrogen−UWRtest compound/UWRestrogen−UWRcontrol). ED50 values are derived from a semi-log regression analysis of the linear aspect of the dose response curve. Both the UWR data and the percent inhibition data are statistically analyzed by one way analysis of variance (ANOVA) with post-hoc testing by Fisher's PLSD when indicated by a p≦0.05. Statistical analyses are performed using the Statview® 4.0 software package.

[3] = tested on: mature F344 female rats; assay: 10-Day Rat Hormone (Ovarian Stimulation) Screen; type: in vivo; details: oral gavage 10 days, serum about 2 hours after the 10th dose, RIA
Protocol: 10-Day Rat Hormone (Ovarian Stimulation) Screen: An initial, first screen for ovarian toxicity is conducted using a 10-day rat hormone study to measure estradiol and luteinizing hormone levels after compound administration. This screen is conducted by administering compound by oral gavage for 10 days to mature (9-10 week old) F344 female rats. Trunk blood is collected by rapid decapitation for evaluation of LH and estradiol levels approximately 2 hours after the 10th dose. Serum, obtained by centrifugation, is removed and stored frozen below −60° C. until assayed. Serum levels of LH and estradiol are measured using radioimmunoassay (RIA) methods.
Rat LH primary antibody and reference preparations (rat LH:RP-3) are obtained from Dr. A. F. Parlow, Director, Pituitary Hormones and Antisera Center, Harbor-UCLA Medical Center, Torrance, Calif. The LH assay upper limits of detection are 30 ng/mL and the lower limits of detection are 0.1 ng/mL for the 100 μl samples.
E2 Clinical Assays. DiaSorin s.r.l., Saluggia (Vercelli), Italy. The upper limit of detection is 1000 pg/mL and the lower limit of detection is 5 pg/mL.

[4] = tested on: Ishikawa human endometrial tumor cells; assay: Ishikawa Cell Proliferation Assay, antagonist mode (block of estradiol stimulation); type: cell-based; details: for IC50: 1 nM E2; for Emax: versus E2 (1 nM) alone, read-out: % efficacy
Protocol: as §1, §2
For the agonist mode, plates receive 25 μl/well of assay medium followed by 25 μl/well of a diluted compound of the present invention (at 6× the final concentrations). For the antagonist mode, plates receive 25 μl/well of 6 nM E2 (β-Estradiol, Sigma, St. Louis, Mo.) followed by 25 μl/well of a diluted compound of the present invention (at 6× the final concentrations). After an additional 48-hour incubation at 37° C. in a 5% CO2 humidified incubator, media is aspirated from wells and 100 μl fresh assay medium is added to each microculture. Serial dilutions of compounds are prepared and added to the cells as described above. […] After a 20-minute incubation, plates are read on a spectophotometer at 405 nm.
as §3

[5] = tested on: uterus of mature, ovariectomized rats; assay: 4-Day OVX Rat Uterine Agonist Assay; type: in vivo; details: 4 days of treatment, 3 doses
Protocol: Seventy-five day old rats are ovariectomized and treatment is started 14 days later when circulating estradiol levels have reached minimal levels. After 4 days of treatment with 3 doses of a compound of the present invention, (6 rats per group) body weight, uterine wet weight and uterine eosinophil peroxidase (EPO) activity are measured. Cholesterol levels are also measured to compare relative ability to lower cholesterol with other SERMs. If there is any question of uterine stimulation, histological examination will determine epithelial cell height.

| SMILES | stimulation compared with tamoxifen [1] | inhibition of the estrogen-induced response (uterine weight/body weight ratio) [2] | further results |
| --- | --- | --- | --- |
| COc1ccc2c(Oc3ccc(OCCN4CCCCC4)cc3)c(-c3ccc(C(C)(C)O)cc3)ccc2c1 [Example 44] | less stimulatory than tamoxifen |  |  |
| OCc1ccc2c(c1)OC(c1ccc(OCCN3CCCCC3)cc1)c1c-2ccc2cc(O)ccc12 (racemic) [Example 37, 8-Hydroxymethyl-5-[4-(2-piperidin-1-yl-ethoxy)-phenyl]-5H-6-oxa-chrysen-2-ol] | less stimulatory than tamoxifen | inhibit the estrogen-induced response | % antagonism [2]: 89%; ED50 [2]: 0.06 mpk; circulating LH levels [3]: did not significantly elevate; circulating estradiol levels [3]: did not significantly elevate |
| Cl.OCc1ccc(-c2ccc3cc(O)ccc3c2Oc2ccc(OCCN3CCCCC3)cc2)cc1 [Example 41, 6-(4-Hydroxymethyl-phenyl)-5-[4-(2-piperidin-1-yl-ethoxy)-phenoxy]-naphthalen-2-ol, hydrochloride] | less stimulatory than tamoxifen |  |  |
| CN(C)C(=O)c1cccc(-c2ccc3cc(O)ccc3c2Oc2ccc(OCCN3CCCCC3)cc2)c1.Cl [Example 8, 3-{6-Hydroxy-1-[4-(2-piperidin-1-yl-ethoxy)-phenoxy]-naphthalen-2-yl}-N,N-dimethylbenzamide, hydrochloride salt] | less stimulatory than tamoxifen | inhibit the estrogen-induced response | Emax [1]: 15%; IC50 [4]: 9 nM; Emax [4]: 95% |
| COC(=O)c1ccc(-c2ccc3cc(O)ccc3c2Oc2ccc(OCCN3CCCCC3)cc2)cc1.Cl [Example 5, 4-{6-Hydroxy-1-[4-(2-piperidin-1-yl-ethoxy)-phenoxy]-naphthalen-2-yl}-benzoic acid methyl ester hydrochloride] | less stimulatory than tamoxifen | inhibit the estrogen-induced response | uterine eosinophil peroxidase (EPO) activity [5]: did not cause any dose-related statistically significant increase in EPO activity; circulating LH levels [3]: did not significantly elevate; circulating estradiol levels [3]: did not significantly elevate |
| O=C(O)C(F)(F)F.O=C(O)c1cccc2c1OC(c1ccc(OCCN3CCCCC3)cc1)c1c-2ccc2cc(O)ccc12 (centres unmarked) [Example 35, 2-Hydroxy-5-[4-(2-piperidin-1-yl-ethoxy)-phenyl]-5H-6-oxa-chrysene-7-carboxylic acid trifluoroacetate] | less stimulatory than tamoxifen |  | Emax [1]: 25%; IC50 [4]: 36 nM; Emax [4]: 92% |
| Cl.O=C(O)c1ccc(-c2ccc3cc(O)ccc3c2Oc2ccc(OCCN3CCCCC3)cc2)cc1 [Example 6, 4-{6-Hydroxy-1-[4-(2-piperidin-1-yl-ethoxy)-phenoxy]-naphthalen-2-yl}-benzoic acid hydrochloride] | less stimulatory than tamoxifen |  |  |
| OCc1ccc2c(c1)OC(c1ccc(OCCN3CCCCC3)cc1)c1c-2ccc2cc(O)ccc12 (centres unmarked) [Example 39, 8-Hydroxymethyl-5-[4-(2-piperidin-1-yl-ethoxy)-phenyl]-5H-6-oxa-chrysen-2-ol] | less stimulatory than tamoxifen |  |  |
| Cl.NC(=O)c1cccc(-c2ccc3cc(O)ccc3c2Oc2ccc(OCCN3CCCCC3)cc2)c1 [Example 1, 3-{6-Hydroxy-1-[4-(2-piperidin-1-yl-ethoxy)-phenoxy]-naphthalen-2-yl}-benzamide hydrochloride] | less stimulatory than tamoxifen |  |  |
| COc1ccc2c3c(ccc2c1)-c1ccc(CO)cc1OC3c1ccc(OCCN2CCCCC2)cc1 (centres unmarked) [Example 36, {2-Methoxy-5-[4-(2-piperidin-1-yl-ethoxy)-phenyl]-5H-6-oxa-chrysen-8-yl}-methanol] | less stimulatory than tamoxifen |  |  |
| COC(=O)c1cccc(-c2ccc3cc(O)ccc3c2Oc2ccc(OCCN3CCCCC3)cc2)c1.Cl [Example 2, 3-{6-Hydroxy-1-[4-(2-piperidin-1-yl-ethoxy)-phenoxy]-naphthalen-2-yl}-benzoic acid methyl ester hydrochloride] | less stimulatory than tamoxifen |  |  |
| Cl.O=C1NCc2cc(-c3ccc4cc(O)ccc4c3Oc3ccc(OCCN4CCCCC4)cc3)ccc21 [Example 11, 5-{6-Hydroxy-1-[4-(2-piperidin-1-yl-ethoxy)-phenoxy]-naphthalen-2-yl}-2,3-dihydro-isoindol-1-one Hydrochloride] | less stimulatory than tamoxifen | inhibit the estrogen-induced response | % antagonism [2]: 79%; ED50 [2]: 0.3 mpk |
| O=C(O)C(F)(F)F.O=C(O)c1cccc(-c2ccc3cc(O)ccc3c2Oc2ccc(OCCN3CCCCC3)cc2)c1 [Example 3, 3-{6-Hydroxy-1-[4-(2-piperidin-1-yl-ethoxy)-phenoxy]-naphthalen-2-yl}-benzoic acid trifluoroacetate] | less stimulatory than tamoxifen |  |  |
